Paper PMC6339655 (International Journal of Nanomedicine, 2019)
In brackets after ≈: the same amount, converted by molar mass.

System: C. albicans (ATCC-90028)
Assay: MIC by colony-forming assay
Type: cell-based
Settings: Candida albicans, ATCC90028, 48 h

Question: For `C[C@@H]1C/C=C/C=C/C=C/C=C/[C@H](O[C@@H]2O[C@H](C)[C@@H](O)[C@H](N)[C@@H]2O)C[C@@H]2O[C@](O)(C[C@@H](O)C[C@H]3O[C@@H]3/C=C/C(=O)O1)C[C@H](O)[C@H]2C(=O)O` [natamycin], which MIC is on record?
Answer: 64 µg/mL (≈ 96.1 µM)
